The values below come from BindingDB's records for doi:10.1021/jm00067a003 (Upjohn Laboratories, 1993).

The structures appear in SMILES notation.

This assay concerns the target 5-hydroxytryptamine receptor 1A (Bos taurus). The assay can be described thus: Binding affinity at 5-hydroxytryptamine 1A receptor in bovine hippocampal preparation using [3H]8-OH-DPAT.

Turning to `CCCN(CC1CC1)[C@H]1CCc2ccc3[nH]c(C(N)=O)cc3c2C1`, the affinity, expressed as Ki, was 5.3 nM.
